Literature values, collected in US20140276034A1, “Apparatus Detection of Circulatory Anomalies” (Cardiox Corporation, priority 2013, published 2014).

Conditions: manufacturers specified guideline; cited from earlier work

In the case of CC1(C)C(=CC=CC=CC=CC2=[N+](CCCCS(=O)(=O)[O-])c3ccc4ccccc4c3C2(C)C)N(CCCCS(=O)(=O)[O-])c2ccc3ccccc3c21.[Na+] [ICG, 1H-benz(e)indolium, 2-[7-[1,3-dihydro-1,1-dimethyl-3-(4-sulfobutyl)-2H-benz[e]indo-2-ylidene]-1,3,5-heptatrienyl]-1,1-dimethyl-3-(4-sulfobutyl)-hydroxide, inner salt, sodium], the “maximum ICG dose per day” value is listed as 2 milligrams per kilogram of body weight.
